The test relates to A549/OPNluc cells. As to the kind of experiment: WST assay (cell growth inhibition). The class given is cell-based. The following applies: Homo sapiens, 48±4 hours, WST-1, read-out: IC50 (concentration for 50% inhibition of cell growth). The text has this: A reporter vector pOPN1-luc obtained by inserting a human OPN promoter sequence (−765 to 23) into the multiple cloning site of pGL-3 basic vector (Promega) expresses luciferase when transfected into animal cells. This pOPN1-luc was transfected into a human non-small cell lung cancer-derived cell line A549 together with pPUR (Clontech) that expresses a puromycin resistance gene (puromycin-N-acetyl-transferase gene), and cells that could grow in a puromycin-supplemented medium and expressed luciferase were selected. The selected cells were named A549/OPNluc cells and used for observation of luciferase expression inhibitory effect under control of OPN promoter, as described later.
A test compound was added to a culture liquid containing A549/OPNluc cells to observe its influence on the amount of luciferase expressed in the cells. Here, it can be considered that when the test compound has cytotoxity or cell growth-suppressing effect, the total expression level of luciferase is reduced due to a reduction in the number of living cells that depends on the concentration of the test compound, and therefore the luciferase expression inhibitory effect of the test compound under control of OPN promoter cannot be properly evaluated. For this reason, WST assay for quantification of cell proliferation ability or cell viability by colorimetric measurement was first performed to determine IC50 (concentration for 50% inhibition of cell growth) of the test compound for cell growth. Then, luciferase activity measurement was performed to determine EC50 (concentration for 50% inhibition of luciferase expression) of the test compound for luciferase expression under control of OPN promoter.
A549/OPNluc cells were suspended in DMEM medium containing 10% fetal calf serum (FCS) and 1% penicillin/streptomycin (P/S) at 3×10^4 cells/mL to obtain a cell suspension, and 100 μL of the cell suspension was dispensed into each well of a 96-well plate. In order to perform the assay in triplicate, 3 wells were prepared for a control group and 3 wells were prepared for each test compound-treated group at each concentration. After the dispensing, the 96-well plate was incubated in a CO2 incubator (at 37° C. and 5% CO2) for 24±4 hours.
The test compound was dissolved in dimethylsulfoxide (DMSO) to obtain a 50 mmol/L solution, and the test compound solution was stored at −80° C. The test compound solution was diluted with DMSO in 2-fold dilution series (usually, in the range of 0.31 mmol/L to 20 mmol/L) to prepare test compound solutions whose concentration varied by two fold for WST assay.
Only DMSO (control) or the diluted test compound (sample) solution was dispensed in an amount of 0.5 μL into each well containing the cell suspension (200-fold dilution). The solution in each well was mixed with a vortex mixer, and then the 96-well plate was incubated in a CO2 incubator (at 37° C. and 5% CO2) for 48±4 hours. Then, 10 μL of Premix WST-1 Reagent (TAKARA BIO INC.) was added to each well. The solution in each well was mixed with a vortex mixer, and then the 96-well plate was incubated at 37° C. and 5% CO2. After 60 minutes or 120 minutes, absorbance values (450 nm) were measured using a microplate reader (Bio-Rad; Benchmark or Thermo Scientific; Varioskan Flash).
The absorbance values of the control wells and the absorbance values of the sample wells at each concentration were input into an Excel file to determine the percentages of absorbance values of the sample wells at each concentration with respect to the average of absorbance values of the control wells. From the determined values, a fitted curve was determined by the method of least squares to calculate IC50.

pIC50: −log10 of the molar value.

For the compound `CCCCCCCCCCCC(=O)[C@H]1C(=O)O[C@@H](C)C[C@@H]1C` [Chemical formula 3], the pIC50 was 4.25.

The values are drawn from patent US9463188B2, “Osteopontin production inhibitor containing dictyopyrone derivative or dihydrodictyopyrone derivative as active ingredient” (TOHOKU UNIVERSITY, priority 2013, dated 2016).
